Results taken from patent US20130269064A1, “INSECTICIDAL COMPOUNDS” (SYNGENTA PARTICIPATIONS AG, priority 2010, published 2013).

Legend:
Assay type in all cases: in vivo
Spodoptera littoralis = Spodoptera littoralis (Egyptian cotton leafworm) cotton leaf disc test; conditions: foliar, 72 h, 200 ppm sprayed on cotton leaf discs, 5 L1 larvae, mortality, feeding behaviour, growth regulation 3 DAT
Excerpt: Spodoptera littoralis (Egyptian Cotton Leafworm): Cotton leaf discs were placed on agar in a 24-well microtiter plate and sprayed with test solutions at an application rate of 200 ppm. After drying, the leaf discs were infested with 5 L1 larvae. The samples were checked for mortality, feeding behaviour, and growth regulation 3 days after treatment (DAT).

Heliothis virescens = Heliothis virescens (tobacco budworm) egg/artificial diet test; conditions: 96 h, 200 ppm (concentration in well 18 ppm), eggs 0-24 h old on artificial diet, 4 days, egg mortality, larval mortality, growth regulation
Description: Heliothis virescens (Tobacco Budworm): Eggs (0-24 h old) were placed in 24-well microtiter plate on artificial diet and treated with test solutions at an application rate of 200 ppm (concentration in well 18 ppm) by pipetting. After an incubation period of 4 days, samples were checked for egg mortality, larval mortality and growth regulation.

Plutella xylostella = Plutella xylostella (diamond back moth) artificial diet test; conditions: 144 h, 200 ppm (concentration in well 18 ppm), L2 larvae, 6 days, larval mortality and growth regulation
Description: (§1) Plutella xylostella (Diamond Back Moth): A 24-well microtiter plate (MTP) with artificial diet was treated with test solutions at an application rate of 200 ppm (concentration in well 18 ppm) by pipetting. After drying, the MTP's were infested with L2 larvae (7-12 per well). After an incubation period of 6 days, samples were checked for larval mortality and growth regulation.

Diabrotica balteata = Diabrotica balteata (corn root worm) artificial diet test; conditions: 120 h, 200 ppm (concentration in well 18 ppm), L2 larvae, 5 days, larval mortality and growth regulation
Description: as §1, with “Diabrotica balteata (Corn Root Worm):” for “Plutella xylostella (Diamond Back Moth):”, “with” for “with L2”, “(L2) (6-10” for “(7-12”, “5” for “6”, “mortality,” for “mortality”

Thrips tabaci = Thrips tabaci (onion thrips) sunflower leaf disc test; conditions: foliar, 168 h, 200 ppm sprayed on sunflower leaf discs, mixed ages, 7 days, mortality
Description: Thrips tabaci (Onion Thrips): Sunflower leaf discs were placed on agar in a 24-well microtiter plate and sprayed with test solutions at an application rate of 200 ppm. After drying, the leaf discs were infested with an […] population of mixed ages. After an incubation period of 7 days, samples were checked for mortality.

Tetranychus urticae = Tetranychus urticae (two-spotted spider mite) bean leaf disc test; conditions: foliar, 192 h, 200 ppm sprayed on bean leaf discs, mixed ages, 8 days, egg, larval and adult mortality
Excerpt: Tetranychus urticae (Two-Spotted Spider Mite): Bean leaf discs on agar in 24-well microtiter plates were sprayed with test solutions at an application rate of 200 ppm. After drying, the leaf discs are infested with mite populations of mixed ages. 8 days later, discs are checked for egg mortality, larval mortality, and adult mortality.

Measured: pest or weed control at 200 ppm

Cn1nc(C(F)(F)C(F)(F)F)c(C(F)(F)F)c1NC(=O)c1cccc(NC(=O)c2ccccc2)c1F [Compound B16]
≥ 80%: all assays above

Cn1nc(C(F)(F)C(F)(F)F)c(C(F)(F)F)c1NC(=O)c1cccc(NC(=O)c2ccc(F)cc2Cl)c1 [Compound D19]
not listed: Heliothis virescens
≥ 80%: all other assays above

Cn1nc(C(F)(F)C(F)(F)F)c(C(F)(F)F)c1NC(=O)c1cccc(NC(=O)c2ccccc2Cl)c1 [Compound D3]
not listed: Tetranychus urticae
≥ 80%: all other assays above

Cn1nc(C(F)(F)C(F)(F)F)c(C(F)(F)F)c1NC(=O)c1cccc(NC(=O)c2ccc(F)cc2F)c1 [Compound D22]
not listed: Tetranychus urticae
≥ 80%: all other assays above

Cn1nc(C(F)(F)C(F)(F)F)c(C(F)(F)F)c1NC(=O)c1ccc(C#N)c(NC(=O)c2ccccc2)c1 [Compound A2]
not listed: Tetranychus urticae
≥ 80%: all other assays above

Cc1cc(C#N)ccc1C(=O)Nc1cc(C(=O)Nc2c(C(F)(F)F)c(C(F)(F)C(F)(F)F)nn2C)ccc1C#N [Compound A1, 3-(4-cyano-2-methyl-Benzoyl) amino-4-cyano-N-(2-methyl-5-pentafluoroethyl-4-trifluoromethyl-2H-pyrazol-3-yl)-benzamide]
≥ 80%: Heliothis virescens | Diabrotica balteata | Thrips tabaci | Tetranychus urticae

Cn1nc(C(F)(F)C(F)(F)F)c(C(F)(F)F)c1NC(=O)c1cccc(NC(=O)c2ccccc2F)c1 [Compound D1]
not listed: Tetranychus urticae
≥ 80%: all other assays above

Cn1nc(C(F)(F)C(F)(F)F)c(C(F)(F)F)c1NC(=O)c1cccc(NC(=O)c2ccc(C(F)(F)F)cc2)c1 [Compound D13]
not listed: Tetranychus urticae
≥ 80%: all other assays above

Cn1nc(C(F)(F)C(F)(F)F)c(C(F)(F)F)c1NC(=O)c1cccc(NC(=O)c2ccccc2)c1 [Compound D16]
≥ 80%: Spodoptera littoralis | Plutella xylostella | Diabrotica balteata | Thrips tabaci

Cn1nc(C(F)(F)C(F)(F)F)c(C(F)(F)F)c1NC(=O)c1cccc(NC(=O)c2cc(Cl)ccc2F)c1 [Compound D8]
≥ 80%: all assays above

Cn1nc(C(F)(F)C(F)(F)F)c(C(F)(F)F)c1NC(=O)c1cccc(NC(=O)c2ccc([N+](=O)[O-])cc2Cl)c1 [Compound D9]
≥ 80%: Diabrotica balteata | Thrips tabaci | Tetranychus urticae

Cn1nc(C(F)(F)C(F)(F)F)c(C(F)(F)F)c1NC(=O)c1cccc(NC(=O)c2ccc(F)cc2)c1 [Compound D17]
not listed: Heliothis virescens
≥ 80%: all other assays above

Cn1nc(C(F)(F)C(F)(F)F)c(C(F)(F)F)c1NC(=O)c1cccc(NC(=O)c2cccc(F)c2F)c1 [Compound D21]
not listed: Tetranychus urticae
≥ 80%: all other assays above
